Reference: patent US8785655B2, “Ionic liquid solvents” (Dublin City University, priority 2009, dated 2014)

What was measured:
[1] = test system: Pseudomonas aeruginosa CCM 1961; experiment: Screen against bacteria, MIC/IC80; assay type: cell-based; conditions: PA
[2] = test system: Klebsiella pneumoniae D 11750/08; experiment: Screen against bacteria, MIC/IC80; assay type: cell-based; conditions: KP
[3] = test system: Aspergillus fumigatus 231; experiment: In vitro antifungal activity, MIC by microdilution (NCCLS M27-A); conditions: AF
Candida tropicalis 156 = experiment: as above; conditions: CT
Experimental: (§1) In vitro antifungal activities of the compounds were evaluated on the collection of fungal strains deposited at the Department of Biological and Medical Sciences, Faculty of Pharmacy, Charles University, Czech Republic. All the isolates were maintained on Sabouraud dextrose agar prior to being tested.
(§2) Minimum inhibitory concentrations (MICs) were determined by the microdilution format of the NCCLS M27-A guidelines. […] RPMI 1640 (Sevapharma, Prague) medium supplemented with L-glutamine and buffered with 0.165 M morpholinepropanesulfonic acid to pH 7.0 was used as the test medium. The wells of the microdilution tray contained 100 μl of the RPMI 1640 medium with 2-fold serial dilutions of the compounds (1000 to 0.24 μmol/l for the new compounds) and 100 μl of inoculum suspension. Fungal inoculum in RPMI 1640 was prepared to give a final concentration of 5×103±0.2 cfu·ml-1. The trays were incubated at 35° C. and MICs were read visually for filamentous fungi and photometrically for yeasts as an optical density (OD) at 540 nm after 24 h and 48 h. The MICs were defined as 80% inhibition of the growth of control. MICs were determined twice and in duplicate. The deviations from the usually obtained were no higher than the nearest concentration value up and down the dilution scale.

[4] = test system: Candida albicans ATCC 44859; experiment: as above
[5] = test system: Staphylococcus epidermidis H 6966/08; experiment: Screen against bacteria, MIC/IC80; assay type: cell-based; conditions: SE
[6] = test system: Klebsiella pneumoniae J 14368/08 ESBL-positive; experiment: Screen against bacteria, MIC/IC80; assay type: cell-based; conditions: KP-E
[7] = test system: Trichophyton mentagrophytes 445; experiment: In vitro antifungal activity, MIC by microdilution (NCCLS M27-A); conditions: TM
Experimental: as §1, §2

Absidia corymbifera 272 = experiment: as above; conditions: AC
[8] = test system: Staphylococcus aureus CCM 4516/08; experiment: Screen against bacteria, MIC/IC80; assay type: cell-based; conditions: SA
Candida krusei E28 = experiment: In vitro antifungal activity, MIC by microdilution (NCCLS M27-A)
Experimental: All the isolates were maintained on Sabouraud dextrose agar prior to being tested.
as §2

Candida krusei ATCC 6258 = experiment: as above
Experimental: as §1, §2

Candida glabrata 20/l = experiment: as above; conditions: CG
Experimental: as §1, §2

[9] = test system: Candida lusitaniae 2446/l; experiment: as above; conditions: CL
Experimental: as §1, §2

[10] = test system: Enterococcus sp. J 14365/08; experiment: Screen against bacteria, MIC/IC80; assay type: cell-based; conditions: EF
[11] = test system: Candida parapsilosis ATCC 22019; experiment: In vitro antifungal activity, MIC by microdilution (NCCLS M27-A); conditions: CP
Experimental: as §1, §2

[12] = test system: Staphylococcus aureus H 5996/08 Methiciline-resistant; experiment: Screen against bacteria, MIC/IC80; assay type: cell-based; conditions: MRSA
[13] = test system: Candida albicans ATCC 90028; experiment: In vitro antifungal activity, MIC by microdilution (NCCLS M27-A)
Experimental: as §1, §2

Escherichia coli CCM4517 = experiment: Screen against bacteria, MIC/IC80; assay type: cell-based; conditions: EC

Measured: MIC/IC80

R-3-methyl-1-[1-(ethoxyethoxycarbonyl)-1-methylmethoxycarbonylmethyl]imidazolium octyl sulphate [KG173]
>1000 µM: [1]; 24 h | [1]; 48 h | [2]; 24 h | [2]; 48 h | [3]; 24 h | [3]; 48 h | Candida tropicalis 156; 24 h | Candida tropicalis 156; 48 h | [4]; CA1, 24 h | [4]; CA1, 48 h | [5]; 24 h | [5]; 48 h | [6]; 24 h | [6]; 48 h | [7]; 72 h | [7]; 120 h | Absidia corymbifera 272; 24 h | Absidia corymbifera 272; 48 h | [8]; 24 h | [8]; 48 h | Candida krusei E28; CK2, 24 h | Candida krusei E28; CK2, 48 h | Candida krusei ATCC 6258; CK1, 24 h | Candida krusei ATCC 6258; CK1, 48 h | Candida glabrata 20/l; 24 h | Candida glabrata 20/l; 48 h | [9]; 24 h | [9]; 48 h | [10]; 24 h | [10]; 48 h | [11]; 24 h | [11]; 48 h | [12]; 24 h | [12]; 48 h | [13]; CA2, 24 h | [13]; CA2, 48 h | Escherichia coli CCM4517; 24 h | Escherichia coli CCM4517; 48 h

CCCCCCCCOS(=O)(=O)[O-].CCOCCOC(=O)C(C)OC(=O)Cn1cc[n+](C)c1 (centres unmarked) [KG172, RS-3-methyl-1-[1-(ethoxyethoxycarbonyl)-1-methylmethoxycarbonylmethyl]imidazolium octyl sulphate]
>1000 µM: [1]; 24 h | [1]; 48 h | [2]; 24 h | [2]; 48 h | [3]; 24 h | [3]; 48 h | Candida tropicalis 156; 24 h | Candida tropicalis 156; 48 h | [4]; CA1, 24 h | [4]; CA1, 48 h | [5]; 24 h | [5]; 48 h | [6]; 24 h | [6]; 48 h | [7]; 72 h | [7]; 120 h | Absidia corymbifera 272; 24 h | Absidia corymbifera 272; 48 h | [8]; 24 h | [8]; 48 h | Candida krusei E28; CK2, 24 h | Candida krusei E28; CK2, 48 h | Candida krusei ATCC 6258; CK1, 24 h | Candida krusei ATCC 6258; CK1, 48 h | Candida glabrata 20/l; 24 h | Candida glabrata 20/l; 48 h | [9]; 24 h | [9]; 48 h | [10]; 24 h | [10]; 48 h | [11]; 24 h | [11]; 48 h | [12]; 24 h | [12]; 48 h | [13]; CA2, 24 h | [13]; CA2, 48 h | Escherichia coli CCM4517; 24 h | Escherichia coli CCM4517; 48 h

R-3-methyl-1-[1-(pentoxycarbonyl)-1-methylmethoxycarbonylmethyl]imidazolium octyl sulphate [KG171]
>1000 µM: [1]; 24 h | [1]; 48 h | [2]; 24 h | [2]; 48 h | [3]; 24 h | [3]; 48 h | Candida tropicalis 156; 24 h | Candida tropicalis 156; 48 h | [4]; CA1, 24 h | [4]; CA1, 48 h | [5]; 24 h | [5]; 48 h | [6]; 24 h | [6]; 48 h | [7]; 72 h | [7]; 120 h | Absidia corymbifera 272; 24 h | Absidia corymbifera 272; 48 h | [8]; 24 h | [8]; 48 h | Candida krusei E28; CK2, 24 h | Candida krusei E28; CK2, 48 h | Candida krusei ATCC 6258; CK1, 24 h | Candida krusei ATCC 6258; CK1, 48 h | Candida glabrata 20/l; 24 h | Candida glabrata 20/l; 48 h | [9]; 24 h | [9]; 48 h | [10]; 24 h | [10]; 48 h | [11]; 24 h | [11]; 48 h | [12]; 24 h | [12]; 48 h | [13]; CA2, 24 h | [13]; CA2, 48 h | Escherichia coli CCM4517; 24 h | Escherichia coli CCM4517; 48 h

CCCCCOC(=O)[C@@H](C)OC(=O)C[n+]1ccn(C)c1 [KG159, R-3-methyl-1-[1-(pentoxycarbonyl)-1-methylmethoxycarbonylmethyl]imidazolium bromide]
>1000 µM: [1]; 24 h | [1]; 48 h | [2]; 24 h | [2]; 48 h | [3]; 24 h | [3]; 48 h | Candida tropicalis 156; 24 h | Candida tropicalis 156; 48 h | [4]; CA1, 24 h | [4]; CA1, 48 h | [5]; 24 h | [5]; 48 h | [6]; 24 h | [6]; 48 h | [7]; 72 h | [7]; 120 h | Absidia corymbifera 272; 24 h | Absidia corymbifera 272; 48 h | [8]; 24 h | [8]; 48 h | Candida krusei E28; CK2, 24 h | Candida krusei E28; CK2, 48 h | Candida krusei ATCC 6258; CK1, 24 h | Candida krusei ATCC 6258; CK1, 48 h | Candida glabrata 20/l; 24 h | Candida glabrata 20/l; 48 h | [9]; 24 h | [9]; 48 h | [10]; 24 h | [10]; 48 h | [11]; 24 h | [11]; 48 h | [12]; 24 h | [12]; 48 h | [13]; CA2, 24 h | [13]; CA2, 48 h | Escherichia coli CCM4517; 24 h | Escherichia coli CCM4517; 48 h
